Source: PubChem BioAssay AID2060894 (Molecular Pharmacology Branch, DTP, NCI, 2025)

System: K12877-001-R-J1-PDC complex spheroid viability
Assay: Anticancer human tumor K12877-001-R-J1-PDC patient-derived lung adenocarcinoma cell line growth inhibition [RAS]
Conditions: for IC50: curve of first compound; for viability, T/C: stronger effect = lower value
Description: RAS pathway inhibitors in Combinations in Complex Spheroids
A high-throughput screen of multi-cell type tumor spheroids was designed to identify active combinations of RAS pathway inhibitors and targeted small molecules. Complex spheroids include a stromal component modeled by human endothelial cells (HUVEC) and fibroblasts modeled by human mesenchymal stem cells (MSCs). The concentration ranges selected for each drug and investigational agent were based upon clinically achievable concentrations if the clinical Cmax of the agent was known.
Compounds. The drugs and investigational agents: abemaciclib (NSC768073), cobimetinib (NSC768068), divarasib (GDC6063, NSC841802), docetaxel (NSC628503), GDC-1971 (RLY-1971, NSC841576), gemcitabine (NSC613327), inavolisib (NSC800729), ipatasertib (NSC767898), KB-0742 (NSC834161), MRTX-1133 (NSC836407), osimertinib (NSC779217), RMC-4630 (NSC839698), RMC-6236 (NSC851965), RMC-6291 (NSC852671), Ro-3306 (NSC812927), sapanisertib (NSC764658), SN-38 (NSC673596), staurosporine (NSC755774), SY5609 (NSC837396), and tovorafenib (DAY101, NSC766906), were obtained from the National Cancer Institute (NCI) Developmental Therapeutics Program Chemical Repository. The FDA-approved anticancer drug set is available from the NCI Developmental Therapeutics Program. […] The stock solutions were prepared in dimethyl sulfoxide (DMSO, Sigma-Aldrich, St. Louis, MO, cat. D2650) at 800-fold the tested concentration and stored at -70 degrees C prior to their use. All drugs and investigational agents were tested over a range starting from a high concentration at or near the clinical Cmax and decreasing in half-log increments. If the clinical Cmax for an agent had not been determined, the highest concentration tested was 10 microM.
Cell Culture. All cells were maintained in an incubator at 37 degrees C and 5% CO2 with 95% humidity. The PDC lines were cultured according to standard operating procedures established by the NCI PDMR. All PDCs were thawed and cultured in Matrigel-coated flasks prepared with a working solution of 1X Ham's F-12 nutrient mix, without supplementation (Invitrogen, Waltham, MA, cat. 11765054), 100 U/mL penicillin-streptomycin (Invitrogen, cat. 15140122), and 2.5% Matrigel (Corning Inc., Corning, NY, cat. 354248) for the first three passages. The 362531-283-R-J2-PDC and 782815-120-R-J1-PDC lines were cultured in 6C/Colon 1B media, which includes advanced DMEM/F-12 (Thermo Fisher Scientific, cat. 12634028), 10 mM HEPES (Thermo Fisher Scientific, cat. 15630080), 1X GlutaMAX supplement (Thermo Fisher Scientific, cat. 35050061), 0.1 mg/mL primocin (InvivoGen, San Diego, CA, cat. ant-pm-2), 10% defined fetal bovine serum, heat inactivated (HyClone Laboratories Inc., Logan, UT, cat. SH30070.03HI), 50% L-WRN conditioned media (ATCC, cat. CRL-3276), 1.25 mM N-Acetyl-L-cysteine (Sigma-Aldrich, cat. A9165), 10 mM nicotinamide (Sigma-Aldrich, cat. N0636), 1X B-27 supplement (Thermo Fisher Scientific, cat. 17504044), 1X N-2 supplement (Thermo Fisher Scientific, cat. 17502048), 50 ng/mL human EGF (Thermo Fisher Scientific, cat. PHG0311), and 10 microM Y-27632 dihydrochloride (Tocris Bioscience, cat. 1254). The K12877-001-R-J1-PDC line was cultured in 6I media, which includes all 6C/Colon 1B media plus 10 ng/mL human FGF-10 (PeproTech, cat. 100-26), 1 ng/mL human FGF-2 (PeproTech, cat. 100-18B), 1 µM prostaglandin E2 (Tocris Bioscience, cat. 2296), […] hydrocortisone (Sigma-Aldrich, cat. H4001), and […] bovine insulin (Sigma-Aldrich, cat. I6634). The K86415-001-R-J1-PDC line was cultured in 6D media, which includes all 6C/Colon 1B media components minus the L-WRN conditioned media. The 485176-168-R4-J1-PDC was cultured in PANC media, which includes all 6C/Colon 1B media plus 100 ng/mL human FGF-10 (PeproTech, cat. 100-26), 500 nM SB-431542 (Selleckchem, cat. S1067), and 10 nM gastrin (Tocris Bioscience, cat. 3006). […]
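Further: spheroids exposed to agents for one week before readout.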

CC(=O)OC12COC1CC(O)C1(C)C(=O)C(O)C3=C(C)C(OC(=O)C(O)C(NC(=O)OC(C)(C)C)c4ccccc4)CC(O)(C(OC(=O)c4ccccc4)C21)C3(C)C (centres undefined) + C#Cc1c(F)ccc2cc(O)cc(-c3ncc4c(N5CC6CCC(C5)N6)nc(OCC56CCCN5CC(F)C6)nc4c3F)c12
IC50 (second compound 0.0316 µM): < 31.6 nM | IC50 (second compound 0.1 µM): < 31.6 nM | IC50 (second compound 0.316 µM): < 31.6 nM | IC50 (second compound 1 µM): < 31.6 nM | IC50 (second compound 3.16 µM): < 31.6 nM | IC50 (second compound 10 µM): < 31.6 nM | viability, T/C (second compound 0.0316 µM, first compound 0.0316 µM): 8.75% | viability, T/C (second compound 0.0316 µM, first compound 0.1 µM): 6.43% | viability, T/C (second compound 0.0316 µM, first compound 0.316 µM): 6.63% | viability, T/C (second compound 0.0316 µM, first compound 1 µM): 5.48% | viability, T/C (second compound 0.0316 µM, first compound 3.16 µM): 7.34% | viability, T/C (second compound 0.0316 µM, first compound 10 µM): 14.9% | viability, T/C (second compound 0.1 µM, first compound 0.0316 µM): 8.48% | viability, T/C (second compound 0.1 µM, first compound 0.1 µM): 6.66% | viability, T/C (second compound 0.1 µM, first compound 0.316 µM): 4.24% | viability, T/C (second compound 0.1 µM, first compound 1 µM): 5.34% | viability, T/C (second compound 0.1 µM, first compound 3.16 µM): 6.17% | viability, T/C (second compound 0.1 µM, first compound 10 µM): 16% | viability, T/C (second compound 0.316 µM, first compound 0.0316 µM): 9.56% | viability, T/C (second compound 0.316 µM, first compound 0.1 µM): 6.37% | viability, T/C (second compound 0.316 µM, first compound 0.316 µM): 5.39% | viability, T/C (second compound 0.316 µM, first compound 1 µM): 5.34% | viability, T/C (second compound 0.316 µM, first compound 3.16 µM): 6.63% | viability, T/C (second compound 0.316 µM, first compound 10 µM): 17.3% | viability, T/C (second compound 1 µM, first compound 0.0316 µM): 8.81% | viability, T/C (second compound 1 µM, first compound 0.1 µM): 6.46% | viability, T/C (second compound 1 µM, first compound 0.316 µM): 6.04% | viability, T/C (second compound 1 µM, first compound 1 µM): 5.11% | viability, T/C (second compound 1 µM, first compound 3.16 µM): 7.06% | viability, T/C (second compound 1 µM, first compound 10 µM): 18.1% | viability, T/C (second compound 3.16 µM, first compound 0.0316 µM): 7.54% | viability, T/C (second compound 3.16 µM, first compound 0.1 µM): 5.83% | viability, T/C (second compound 3.16 µM, first compound 0.316 µM): 4.07% | viability, T/C (second compound 3.16 µM, first compound 1 µM): 4.99% | viability, T/C (second compound 3.16 µM, first compound 3.16 µM): 6.13% | viability, T/C (second compound 3.16 µM, first compound 10 µM): 15.7% | viability, T/C (second compound 10 µM, first compound 0.0316 µM): 5.58% | viability, T/C (second compound 10 µM, first compound 0.1 µM): 3.71% | viability, T/C (second compound 10 µM, first compound 0.316 µM): 4.04% | viability, T/C (second compound 10 µM, first compound 1 µM): 4.11% | viability, T/C (second compound 10 µM, first compound 3.16 µM): 5.73% | viability, T/C (second compound 10 µM, first compound 10 µM): 15.2%

CCc1c2c(nc3ccc(O)cc13)-c1cc3c(c(=O)n1C2)COC(=O)[C@]3(O)CC + C#Cc1c(F)ccc2cc(O)cc(-c3ncc4c(N5CC6CCC(C5)N6)nc(OCC56CCCN5CC(F)C6)nc4c3F)c12
IC50 (second compound 0.0316 µM): 4.79 nM | IC50 (second compound 0.1 µM): 5.39 nM | IC50 (second compound 0.316 µM): 5.3 nM | IC50 (second compound 1 µM): 5.51 nM | IC50 (second compound 3.16 µM): 5.35 nM | IC50 (second compound 10 µM): 4.74 nM | viability, T/C (second compound 0.0316 µM, first compound 0.000949 µM): 109% | viability, T/C (second compound 0.0316 µM, first compound 0.003 µM): 77.1% | viability, T/C (second compound 0.0316 µM, first compound 0.00949 µM): 10.3% | viability, T/C (second compound 0.0316 µM, first compound 0.03 µM): 4.77% | viability, T/C (second compound 0.0316 µM, first compound 0.0949 µM): 2.24% | viability, T/C (second compound 0.0316 µM, first compound 0.3 µM): 0.94% | viability, T/C (second compound 0.1 µM, first compound 0.000949 µM): 107% | viability, T/C (second compound 0.1 µM, first compound 0.003 µM): 89% | viability, T/C (second compound 0.1 µM, first compound 0.00949 µM): 12.3% | viability, T/C (second compound 0.1 µM, first compound 0.03 µM): 4.96% | viability, T/C (second compound 0.1 µM, first compound 0.0949 µM): 2.8% | viability, T/C (second compound 0.1 µM, first compound 0.3 µM): 1.27% | viability, T/C (second compound 0.316 µM, first compound 0.000949 µM): 89.3% | viability, T/C (second compound 0.316 µM, first compound 0.003 µM): 87.6% | viability, T/C (second compound 0.316 µM, first compound 0.00949 µM): 11.5% | viability, T/C (second compound 0.316 µM, first compound 0.03 µM): 4.86% | viability, T/C (second compound 0.316 µM, first compound 0.0949 µM): 2.49% | viability, T/C (second compound 0.316 µM, first compound 0.3 µM): 1.48% | viability, T/C (second compound 1 µM, first compound 0.000949 µM): 86.5% | viability, T/C (second compound 1 µM, first compound 0.003 µM): 99.4% | viability, T/C (second compound 1 µM, first compound 0.00949 µM): 11.7% | viability, T/C (second compound 1 µM, first compound 0.03 µM): 9.22% | viability, T/C (second compound 1 µM, first compound 0.0949 µM): 2.66% | viability, T/C (second compound 1 µM, first compound 0.3 µM): 1.23% | viability, T/C (second compound 3.16 µM, first compound 0.000949 µM): 95% | viability, T/C (second compound 3.16 µM, first compound 0.003 µM): 85.9% | viability, T/C (second compound 3.16 µM, first compound 0.00949 µM): 14.4% | viability, T/C (second compound 3.16 µM, first compound 0.03 µM): 7.59% | viability, T/C (second compound 3.16 µM, first compound 0.0949 µM): 3.16% | viability, T/C (second compound 3.16 µM, first compound 0.3 µM): 2.37% | viability, T/C (second compound 10 µM, first compound 0.000949 µM): 82.9% | viability, T/C (second compound 10 µM, first compound 0.003 µM): 75.4% | viability, T/C (second compound 10 µM, first compound 0.00949 µM): 11.4% | viability, T/C (second compound 10 µM, first compound 0.03 µM): 5.12% | viability, T/C (second compound 10 µM, first compound 0.0949 µM): 4.3% | viability, T/C (second compound 10 µM, first compound 0.3 µM): 1.89%
